Measurements taken from patent publication EP0217372A2, “Polyoxygenated labdane derivatives, process for their preparation and their use as medicaments” (HOECHST AKTIENGESELLSCHAFT, priority 1985, dated 1987).
Values after ≈ are worked out from the molar mass of the structure shown. Structures can show the parent of a compound that is named as a salt. Where two headings read alike, the source gives them in different places. One block for each molecule: values may come before it.

Legend:
Meerschweinchen-Vorhof = test: Electrically stimulated left atrium, contractile force; conditions: contractile force of electrically stimulated left atrium, recorded 7 to 10 min
Text: 2. Elektrisch stimulierter linker Vorhof
Es wird ein Meerschweinchen männlichen oder weiblichen Geschlechts mit einem Gewicht von 400 g getötet, das Herz entnommen und bei Zimmertemperatur in Ringerlösung eingebracht. Dann wird der linke Vorhof isoliert, an einem Organhalter befestigt und das Präparat in ein Organbad mit Ringerlösung von Zimmertemperatur gebracht. In das Organbad wird ein lebhafter Strom eines Gemisches von Kohlendioxid und Sauerstoff (95 % 02 und 5 % C02) geleitet. Dann wird der linke Vorhof elektrisch stimuliert. Anschließend wird aus einer der erfindungsgemäßen Verbindungen oder ih- rem Salz gegebenenfalls unter Verwendung von stöchiometrischer wäßriger 0,1 n HC1-Lösung eine wäßrige Lösung bekannter Konzentrationen hergestellt.
Diese Lösung wird dem Bad zugesetzt und die Kontraktionskraft des Vorhofes 7 bis 10 Minuten lang auf einem 4-Kanal-Kohden-Rekorder registriert. Die Wirkung wird aus den ermittelten Daten als EC50 berechnet angegeben.

[1] = tested on: Isoliertes Meerschweinchenherz; test: Isolated guinea pig heart (Langendorff method); set-up: species or system Meerschweinchen; conditions: Cavia porcellus; for activation at 0.01 mg: Dosis 10 µg injected into the aorta; for activation at 0.03 mg: Dosis 30 µg injected into the aorta
Text: 1. Isoliertes Meerschweinchenherz (Langendorff-Methode)
Es wird ein Meerschweinchen männlichen oder weiblichen Geschlechts mit einem Gewicht zwischen 300 und 400 g getötet und das Herz mit einem kleinen Teil der Aorta entnommen. Das Herz wird umgehend in einen Perfusionsapparat gebracht, in dem die Aorta auf der Glaskanüle fixiert wird. Die aus oxygenierter Ringerlösung bestehende Perfusionslösung wird bei konstantem Druck aus dem Behälter zugeführt, der durch aus dem Thermostat zirkulierendes Wasser auf 37°C angewärmt wird. Die zu untersuchenden Verbindungen der Erfindung werden zur Herstellung einer Lösung mit bekannter Konzentration unter Verwendung stöchiometrischer 0,1 n HC1 bzw. deren Salze direkt in Wasser gelöst. Die erhaltene Lösung wird durch eine Polyäthylenkanüle direkt in die Aorta injiziert und die Wirkungen auf die Kontraktionskraft, Herzfrequenz und Koronardurchblutung auf einem 3-Kanal-Physioscribe-Rekorder aufgezeichnet. Die prozentuale Zu- oder Abnahme der inotropen Wirkung wird nach dem intialen Ausgangswert berechnet.

Narkotisierter Hund = test: In vivo test in the anaesthetised dog (left ventricular dp/dt max); set-up: species or system Beagle-Hunde; conditions: injected into the femoral vein, pentobarbital anaesthesia; for ED50: Canis lupus familiaris, iv
Protocol: 3. In vivo-Tests am narkotisierten Hund
Beagle-Hunde beiderlei Geschlechts mit einem Gewicht zwischen 10 und 15 kg werden mit Na-Pentobarbitol (35 mg/kg, i.v.) narkotisiert. Nach Einführen eines Endotrachealtubus werden die Femoralarterie und -vene mit einer Kanüle zur Messung des Blutdrucks bzw. zur Verabreichung von Medikamenten versehen. Der Druck des linken Ventrikels wird mit Hilfe eines Millar-Katheters gemessen und dp/dt max wird berechnet mit einem Hugo-Sachs-Differentiometer. Die Herzfrequenz wird mit Hilfe eines Kardiotachometers aus ECG-Signalen bestimmt. Alle kontinuierlich gemessenen Parameter werden mit einem Hellige-Sechs-Kanal-Recorder aufgezeichnet.
Die zu untersuchenden erfindungsgemäßen Verbindungen werden in destilliertem Wasser gelöst. In allen Experimenten werden 1%ige Lösungen verwendet. Die Lösungen werden in die Femoralvene injiziert und die Dosis-Wirkung-Relation berechnet.

Augeninnendruck (IOP) = test: Intraocular pressure in the conscious rabbit; type: in vivo, Kaninchen; conditions: for Senkung des IOP: percent decrease from baseline; for Dauer: duration of the IOP-lowering effect
Text: Messung des Augeninnendruckes am wachen Kaninchen
Für die Untersuchung wird ein männliches oder weibliches Kaninchen mit einem Gewicht von 2 bis 3 k^g ausgewählt. Der Augeninnendruck (IOP) wird nach vorheriger Hornhautanästhesie mit 2 % Novocain-Lösung mit einem Schioetz-Tonometer gemessen. Zur Herstellung einer 2 %igen wäßrigen Lösung wird eine Verbindung der Formel I unter Verwendung von stöchiometrischer wäßriger 0,1 n HCI-Lösung oder ein Salz einer solchen Verbindung direkt in Wasser gelöst. […] Der IOP wird in Abständen von 0,5, 1, 2, 3, 4 und 5 Stunden gemessen. Die prozentuale Abnahme des IOP wird anhand des Ausgangswertes berechnet.

systolischer Blutdruck = test: Blood pressure lowering in conscious spontaneously hypertensive rats (tail cuff); type: in vivo, SH-Ratten; conditions: 25 mg/kg oral once daily for 5 days; difference from baseline, 2 hours after dosing
Text: Blutdrucksenkung bei wachen hypertonen Ratten
Die blutdrucksenkende Wirkung wird bei wachen Ratten mit spontaner Hyperonie (SH) ermittelt. Eingesetzt werden dazu männliche SH-Ratten (250 - 300 g, 12 - 16 Wochen alt) des Wistar-Okamoto-Stammes aus eigener Züchtung. Vor der Blutdruckmessung werden die Ratten 10 Minuten bei 37'C in einer Wärmekammer aufgewärmt. Der systolische Blutdruck wird bei den wachen Ratten mittels Schwanzmanschetten-Methode gemessen, wobei ein piezoelektrischer Kristall zur Anzeige des Druckpulses, ein aneroides Manometer zur Druckmessung und ein Kardioskop (BPL-India) zur Anzeige des Verschwindens und/oder Auftretens des Druckpulses verwendet wird.
Die zu testenden erfindungsgemäßen Verbindungen werden unter Verwendung von stöchiometrischer 0,1 n HCl-Lösung bzw. die Salze direkt in Wasser gelöst und in dieser Form den SH-Ratten 5 Tage lang einmal täglich in einer Dosierung von 25 mg/kg oral verabreicht. Eine Gruppe dient als Kontrolle und erhält das Vehikel. Der systolische Blutdruck wird vor der ersten Verabreichung des Medikamentes und 2 Stunden danach registriert. Eine Senkung des systolischen Blutdruckes ist die Differenz zwischen dem Blutdruck nach der Behandlung und dem Ausgangswert.

[2] = read-out: % Zunahme der Chronotropen Wirkung
[3] = read-out: % Zunahme der Koronardurchblutung
[4] = relative to initial baseline, read-out: % Zunahme der Inotropen Wirkung

Compound: C=CC1(C)CC(=O)C2(O)C(C)(O1)C(OC(=O)C(C)n1cnc3c1c(=O)n(C)c(=O)n3C)C(O)C1C(C)(C)CCC(O)C12C (stereo not drawn)
- EC50 (Meerschweinchen-Vorhof): 0.9 mg/L (≈ 1.49 µM)

Compound: C=C[C@@]1(C)CC(=O)[C@]2(O)[C@@]3(C)[C@@H](O)CCC(C)(C)[C@@H]3[C@H](OC(=O)C(C)N3CCOCC3)[C@H](O)[C@@]2(C)O1 (stereo partly drawn)
- activation at 0.01 mg [1, 2]: 20%
- activation at 0.01 mg [1, 3]: 11%
- activation at 0.01 mg [1, 4]: 45%
- EC50 (Meerschweinchen-Vorhof): 4.7 mg/L (≈ 9.22 µM)

Compound: C=C[C@@]1(C)CC(=O)[C@]2(O)[C@@]3(C)[C@@H](O)CCC(C)(C)[C@@H]3[C@H](OC(=O)CN3CCC(NC(=O)c4ccccc4)CC3)[C@H](O)[C@@]2(C)O1
- EC50 (Meerschweinchen-Vorhof): 1.2 mg/L (≈ 1.96 µM)

Compound: C=CC1(C)CC(=O)C2(O)C(C)(O1)C(OC(=O)C(C)N1CCSCC1)C(O)C1C(C)(C)CCC(OC(=O)C(C)N3CCSCC3)C12C (stereo not drawn) [6β-9α-Dihydroxy, 1α,7β-di(α'-thiomorpholinopropionyloxy)-8,13-epoxy-labd-14-en-one-dihydrochlorid-trihydrat]
- Senkung des IOP (Augeninnendruck (IOP); Dosis 1 %): 19%
- Dauer (Augeninnendruck (IOP); Dosis 1 %): 6 Std.

Compound: C=CC1(C)CC(=O)C2(O)C(C)(O1)C(O)C(OC(=O)CN(C)C1CCCCC1)C1C(C)(C)CCC(O)C12C (stereo not drawn)
- Senkung des IOP (Augeninnendruck (IOP); Dosis 2 %, 100 µl instilled into one eye): 27.5%
- Dauer (Augeninnendruck (IOP); Dosis 2 %): 6 Std.

Compound: C=CC1(C)CC(=O)C2(O)C(C)(O1)C(O)C(OC(=O)CCCCN1CCCCC1)C1C(C)(C)CCC(O)C12C (stereo not drawn) [the 5th table, row 7]
- Senkung des IOP (Augeninnendruck (IOP); Dosis 1 %): 23%
- Dauer (Augeninnendruck (IOP); Dosis 1 %): 6 Std.

Compound: C=CC1(C)CC(=O)C2(O)C(C)(O1)C(O)C(OC(=O)CN1CCCCC1)C1C(C)(C)CCC(O)C12C (stereo not drawn)
- Senkung des systolischen Blutdruckes (systolischer Blutdruck): 14

The next lines start with results.

- EC50 (Meerschweinchen-Vorhof): 22 mg/L (≈ 44.6 µM)
Compound: C=C[C@@]1(C)CC(=O)[C@]2(O)[C@@]3(C)[C@@H](O)CCC(C)(C)[C@@H]3[C@H](O)[C@H](OC(=O)CN3CCCCC3)[C@@]2(C)O1
- activation at 0.01 mg [1, 2]: 1%
- activation at 0.01 mg [1, 3]: 31%
- activation at 0.01 mg [1, 4]: 18%

- Meerschweinchen-Vorhof EC50 (Meerschweinchen-Vorhof): 0,266 µg/ml
Compound: C=C[C@@]1(C)CC(=O)[C@]2(O)[C@@]3(C)[C@@H](O)CCC(C)(C)[C@@H]3[C@H](O)[C@H](OC(=O)C(C)N3CCOCC3)[C@@]2(C)O1 (stereo partly drawn) [the 2nd table, row 3]
- activation at 0.03 mg [1, 2]: 32%
- activation at 0.03 mg [1, 3]: 44%
- activation at 0.03 mg [1, 4]: 20%
- Narkotisierter Hund dp/dt max ED50 (Narkotisierter Hund): 0,04 mg/kg

- EC50 (Meerschweinchen-Vorhof): 0.5 mg/L (≈ 1.01 µM)
Compound: C=C[C@@]1(C)CC(=O)[C@]2(O)[C@@]3(C)[C@@H](O)CCC(C)(C)[C@@H]3[C@H](OC(=O)CN3CCOCC3)[C@H](O)[C@@]2(C)O1
- activation at 0.03 mg [1, 2]: 34%
- activation at 0.03 mg [1, 3]: 35%
- activation at 0.03 mg [1, 4]: 23%
- ED50 (Narkotisierter Hund): 0.11 mg/kg

- EC50 (Meerschweinchen-Vorhof): 3 mg/L (≈ 5.73 µM)
Compound: C=C[C@@]1(C)CC(=O)[C@]2(O)[C@@]3(C)[C@@H](O)CCC(C)(C)[C@@H]3[C@H](O)[C@H](OC(=O)CCCN3CCOCC3)[C@@]2(C)O1

- EC50 (Meerschweinchen-Vorhof): 1.8 mg/L (≈ 3.75 µM)
Compound: C=C[C@@]1(C)CC(=O)[C@]2(O)[C@@]3(C)[C@@H](O)CCC(C)(C)[C@@H]3[C@H](O)[C@H](OC(=O)CN3CCCC3)[C@@]2(C)O1
- activation at 0.01 mg [1, 2]: 24%
- activation at 0.01 mg [1, 3]: 57%
- activation at 0.01 mg [1, 4]: 38%
- ED50 (Narkotisierter Hund): 0.5 mg/kg

- EC50 (Meerschweinchen-Vorhof): 3 mg/L (≈ 6.26 µM)
Compound: C=C[C@@]1(C)CC(=O)[C@]2(O)[C@@]3(C)[C@@H](O)CCC(C)(C)[C@@H]3[C@H](OC(=O)CN3CCCC3)[C@H](O)[C@@]2(C)O1

- EC50 (Meerschweinchen-Vorhof): 2.6 mg/L (≈ 5.12 µM)
Compound: C=C[C@@]1(C)CC(=O)[C@]2(O)[C@@]3(C)[C@@H](O)CCC(C)(C)[C@@H]3[C@H](OC(=O)CN3CCC(C)CC3)[C@H](O)[C@@]2(C)O1
- ED50 (Narkotisierter Hund): 0.39 mg/kg
